Laboratory results taken from article PMC7780120, “Modulators of histone demethylase JMJD1C selectively target leukemic stem cells” (FEBS Open Bio, 2020).

Target: T1, JMJD1C (partial, 2274-2498aa) (Homo sapiens, UniProt Q15652)
T1 construct: immobilised on CM7 chip
T1 sequence (Q15652 2274-2498): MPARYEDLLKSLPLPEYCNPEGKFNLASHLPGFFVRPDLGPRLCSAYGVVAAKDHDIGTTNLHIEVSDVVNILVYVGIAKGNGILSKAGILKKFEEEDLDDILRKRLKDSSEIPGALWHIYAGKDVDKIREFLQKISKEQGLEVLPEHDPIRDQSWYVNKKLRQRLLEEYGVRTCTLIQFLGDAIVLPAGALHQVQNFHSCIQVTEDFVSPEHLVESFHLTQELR
Assay: SPR, immobilised protein, […] Langmuir fit
Assay type: binding

## CN1CC(=O)N2[C@H](c3ccc4c(c3)OCO4)c3[nH]c4ccccc4c3C[C@@H]2C1=O [tadalafil]
  Kd: 256 µM
